# According to article PMC11823609, “Advancements in the fight against globally distributed OXA-48 carbapenemase: evaluating the new generation of carbapenemase inhibitors” (Antimicrobial Agents and Chemotherapy, 2025):
# Read-outs that look alike come from different tables or passages of the source.
# Legend:
# Test in all cases: microbe, parasite or virus in culture
# [1] = tested on: E. coli HB4 ΔompC/F (OXA-48); format: cell-based, Escherichia coli; details: Escherichia coli
# Excerpt: (§1) The E. coli HB4 strain was used to gain a more complete perspective, by evaluating the involvement in resistance of a low permeability background with the carbapenemase OXA-48, as well as coproduction of an ESBL and the carbapenemase; thus, the ESBL CTX-M-14 and OXA-48 were cloned together and separately into E. coli HB4. The characteristics of these strains and transformants are summarized in Table S1, and the cloning procedures are outlined in the supplemental methods.
# (§2) The MICs of each of the individual compounds (antibiotics or inhibitors) were also determined. The MICs were determined for the E. coli isogenic expressing OXA-48 (and both OXA-48 and CTX-M-14) to assess their activity against the carbapenemase; MICs were also determined for the 18 Enterobacterales clinical isolates in order to evaluate the new inhibitors against also their resistance concomitant mechanisms. The MICs were determined in triplicate experiments, and the EUCAST 13.0 clinical breakpoints were followed (http://www.eucast.org/clinical_breakpoints).
# (§3) For comparative evaluation of the activity of each inhibitor alone against the carbapenemase OXA-48, all inhibitors (at 4 mg/L) were tested in the presence of a carbapenem (ertapenem, adequate substrate) and a cephalosporin (ceftazidime, poor substrate) as reporter substrates. This prevented any possible masking effect produced by the different partner antibiotics. These assays were also performed with isogenic transformants and clinical isolates.
# [2] = tested on: E. coli HB4 ΔompC/F (CTX-M-14); format: cell-based, Escherichia coli; details: Escherichia coli
# Excerpt: as §1, §2, §3
# E. coli HB4 ΔompC/F = format: cell-based, Escherichia coli; details: Escherichia coli
# Excerpt: as §1, §2, §3
# [3] = tested on: E. coli HB4 ΔompC/F (CTX-M-14 + OXA-48); format: cell-based, Escherichia coli; details: Escherichia coli
# Excerpt: as §1, §2, §3
# E. coli TG1 (OXA-48) = format: cell-based, Escherichia coli; details: Escherichia coli
# Description: as §2, §3
# E. coli TG1 = format: cell-based; details: Escherichia coli
# Description: as §2, §3
# [4] = tested on: K. pneumoniae strain 23 (MLST 392, ESBL); format: cell-based; details: Klebsiella pneumoniae
# Description: (§4) The efficacy of these new BLIs was also evaluated against 18 genetically diverse WGS-characterized collection of OXA-48-positive Enterobacterales recovered as part of the Carbapenem-resistant Enterobacterales Genome Database Project (https://genomes.cnag.cat/incredble) listed in Table S2 ([13]). Combinations of clinical isolates (five pairs of Klebsiella pneumoniae, two pairs of Enterobacter cloacae, and two pairs of E. coli) were chosen for analysis: (i) nine strains carrying ESBLs; and (ii) nine strains (genetically closer available strains) without ESBLs.
# as §2, §3
# [5] = tested on: E. cloacae strain 235 (MLST 171, ESBL); format: cell-based; details: Enterobacter cloacae
# Description: as §4, §2, §3
# [6] = tested on: K. pneumoniae strain 125 (MLST 307, ESBL); format: cell-based; details: Klebsiella pneumoniae
# Description: as §4, §2, §3
# [7] = tested on: K. pneumoniae strain 71 (MLST 15, No ESBL); format: cell-based; details: Klebsiella pneumoniae, K. pneumoniae 71, read-out: MIC
# Description: as §4, §2, §3
# [8] = tested on: K. pneumoniae strain 497 (MLST 11, No ESBL); format: cell-based; details: Klebsiella pneumoniae, K. pneumoniae 497, read-out: MIC
# Description: as §4, §2, §3
# [9] = tested on: K. pneumoniae strain 19 (MLST 11, ESBL); format: cell-based; details: Klebsiella pneumoniae
# Description: as §4, §2, §3
# [10] = tested on: E. coli strain 224 (MLST 127, No ESBL); format: cell-based; details: Escherichia coli, E. coli 224, read-out: MIC
# Description: as §4, §2, §3
# [11] = tested on: K. pneumoniae strain 413 (MLST 147, ESBL); format: cell-based; details: Klebsiella pneumoniae
# Description: as §4, §2, §3
# [12] = tested on: E. coli strain 177 (MLST 131, ESBL); format: cell-based; details: Escherichia coli
# Description: as §4, §2, §3
# [13] = tested on: K. pneumoniae strain 194 (MLST 392, No ESBL); format: cell-based; details: Klebsiella pneumoniae, K. pneumoniae 194, read-out: MIC
# Description: as §4, §2, §3
# [14] = tested on: E. coli strain 264 (MLST 131, No ESBL); format: cell-based; details: Escherichia coli, E. coli 264, read-out: MIC
# Description: as §4, §2, §3
# [15] = tested on: E. cloacae strain 272 (MLST 78, ESBL); format: cell-based; details: Enterobacter cloacae
# Description: as §4, §2, §3
# [16] = tested on: E. cloacae strain 281 (MLST 78, No ESBL); format: cell-based; details: Enterobacter cloacae, E. cloacae 281, read-out: MIC
# Description: as §4, §2, §3
# [17] = tested on: K. pneumoniae strain 237 (MLST 147, No ESBL); format: cell-based; details: Klebsiella pneumoniae, K. pneumoniae 237, read-out: MIC
# Description: as §4, §2, §3
# [18] = tested on: E. cloacae strain 231 (MLST 171, No ESBL); format: cell-based; details: Enterobacter cloacae, E. cloacae 231, read-out: MIC
# Description: as §4, §2, §3
# [19] = tested on: E. coli strain 103 (MLST 10, ESBL); format: cell-based; details: Escherichia coli
# Description: as §4, §2, §3
# [20] = tested on: K. pneumoniae strain 170 (MLST 307, No ESBL); format: cell-based; details: Klebsiella pneumoniae, K. pneumoniae 170, read-out: MIC
# Description: as §4, §2, §3
# [21] = tested on: K. pneumoniae strain 238 (MLST 15, ESBL); format: cell-based; details: Klebsiella pneumoniae
# Description: as §4, §2, §3
# [22] = BL alone or BL/BLI: AVI, REL, TAN, DUR 4 mg/L, VAB, XER 8 mg/L, ZID, NAC 1:1
Compound,MIC [1] [µg/mL],MIC [2] [µg/mL],MIC (E. coli HB4 ΔompC/F) [µg/mL],MIC [3] [µg/mL],MIC (E. coli TG1 (OXA-48)) [µg/mL],MIC [4] [µg/mL],MIC [5] [µg/mL],MIC [6] [µg/mL],MIC [9] [µg/mL],MIC [11] [µg/mL],MIC [12] [µg/mL],MIC [15] [µg/mL],MIC [19] [µg/mL],MIC [21] [µg/mL],MIC (E. coli TG1; [22]) [µg/mL],"MIC [7, 22] [µg/mL]","MIC [8, 22] [µg/mL]","MIC [10, 22] [µg/mL]","MIC [13, 22] [µg/mL]","MIC [14, 22] [µg/mL]",other results
"O=C(NC1CCNCC1)[C@@H]1CC[C@@H]2CN1C(=O)N2OS(=O)(=O)O [Relebactam, relebactam]",≥ 128,≥ 128,≥ 128,≥ 128,64,≥ 128,≥ 128,≥ 128,≥ 128,≥ 128,≥ 128,≥ 128,≥ 128,≥ 128,,,,,,,MIC (E. coli TG1; β-lactamase inhibitor alone): 32 µg/mL; MIC ([7]; β-lactamase inhibitor alone): ≥ 128 µg/mL; MIC ([8]; β-lactamase inhibitor alone): ≥ 128 µg/mL; MIC ([10]; β-lactamase inhibitor alone): ≥ 128 µg/mL; MIC ([13]; β-lactamase inhibitor alone): ≥ 128 µg/mL; MIC ([14]; β-lactamase inhibitor alone): ≥ 128 µg/mL; MIC ([16]; β-lactamase inhibitor alone): ≥ 128 µg/mL; MIC ([17]; β-lactamase inhibitor alone): ≥ 128 µg/mL; MIC ([18]; β-lactamase inhibitor alone): ≥ 128 µg/mL; MIC ([20]; β-lactamase inhibitor alone): ≥ 128 µg/mL
"C[C@@H](O)[C@H]1C(=O)N2C(C(=O)O)=C(S[C@@H]3CN[C@H](C(=O)N(C)C)C3)[C@H](C)[C@H]12 [MER, meropenem]",32,0.5,0.12,32,≤ 0.06,1,128,2,1,16,0.5,1,0.25,1,≤ 0.06,2,1,0.5,2,1,"MIC [16, 22]: 1 µg/mL; MIC [17, 22]: 1 µg/mL; MIC [18, 22]: 1 µg/mL; MIC [20, 22]: 1 µg/mL"
"C[C@@H](O)[C@H]1C(=O)N2C(C(=O)O)=C(SCCN=CN)C[C@H]12 [IMP, imipenem]",16,0.25,≤ 0.06,16,0.12,4,≥ 256,4,1,16,2,2,2,2,≤ 0.06,2,4,2,2,0.5,"MIC [16, 22]: 8 µg/mL; MIC [17, 22]: 2 µg/mL; MIC [18, 22]: 2 µg/mL; MIC [20, 22]: 4 µg/mL"
